The values that follow come from ChEMBL document CHEMBL1136333, “A novel series of histone deacetylase inhibitors incorporating hetero aromatic ring systems as connection units” (Bioorg Med Chem Lett, 2003).

A short description of one assay: cells. The assay is classed as functional. The note with it: Homo sapiens, MDA435.
Assay [1] concerns HT-1080. In words: Antiproliferative activity against human HT1080 fibrosarcoma cell line at a dose of 50 uM. It counts as functional.
Assay [2] concerns the target Histone deacetylase (HDAC1 and HDAC2) (Homo sapiens, UniProt Q13547+Q92769). In words: Inhibitory activity against histone deacetylase (HDAC1 and HDAC2) isolated from K562 erythroleukemia cells. It counts as cell-based.
Assay [3] concerns HT-1080. The assay can be described thus: Antiproliferative activity against human HT1080 fibrosarcoma cell line. The assay is classed as functional, cell-based.
The nature of assay [4]: Antiproliferative activity against human MDA-435 breast carcinoma cell line at a dose of 50 uM. It counts as functional.

In general, IC50 refers to the point on the concentration scale where inhibition reaches its midpoint. What is called inhibition is how much of the control response was suppressed. Low readings indicate a response near the control, high ones a response far below the control. As for `O=C(CCCCCCc1nc(-c2ccc(OC(F)(F)F)cc2)cs1)NO`, the IC50 came out at 2040 nM in “cells” and 74 nM in assay [2]. The molecule further yielded an inhibition at 50 µM in the assay on HT-1080 [1] of 100%.
In assay [2], `O=C(CCCCCCCc1ccccc1)NO` yielded an IC50 of 560 nM.
For `COc1ccc(-c2cnc(CCCCCCC(=O)NO)o2)cc1`, the IC50 in “cells” is 2520 nM; in the assay on HT-1080 [3] it was 310 nM; in assay [2] it was 2.1 nM.
As to `O=C(CCCCCCc1cnc(-c2ccc(Br)cc2)o1)NO`, the IC50 came out at 27000 nM in the assay with HT-1080 [3] and 4.4 nM in assay [2]. In assay [4], this molecule displayed an inhibition at 50 µM of 97%.
With `COc1ccc(-c2csc(CCCCCCC(=O)NO)n2)cc1`, the IC50 in the assay “cells” amounted to 2970 nM; in the assay on HT-1080 [3] it was 3630 nM; in assay [2], 2.5 nM.
In assay [2], `O=C(CCCCCCOc1ccccc1)NO` gave an IC50 of 330 nM.
For the molecule `O=C(CCCCCCc1cnc(-c2ccc(OC(F)(F)F)cc2)o1)NO`, the IC50 in the assay “cells” stood at 20400 nM; in the assay on HT-1080 [3], 5140 nM; in assay [2], 89 nM.
For `O=C(CCCCCCc1ncc(-c2ccc(-c3ccc(Cl)cc3)cc2)o1)NO`, in that order: 950 nM, 660 nM and 6.8 nM.
Consider `O=C(CCCCCCc1nc(-c2ccccc2)cs1)NO`, for which the IC50 in the assay on HT-1080 [3] is 5070 nM; in assay [2], 19 nM. Besides, in assay [4], testing at 50 µM gave an inhibition of 99.7%.
For `O=C(CCCCCCc1nc(-c2cccc(Br)c2)cs1)NO`, in that order: 10100 nM, 5.8 nM and 98.6%.
Consider `O=C(CCCCCCc1ccc(-c2ccccc2)cc1)NO`, for which the IC50 in assay [2] was 58 nM.
For `O=C(CCCCCCc1nc(-c2ccc(C(F)(F)F)cc2)cs1)NO`, the figures for the IC50 (in the assay “cells”; with HT-1080 [3]; in assay [2]) were 850 nM, 2390 nM and 42 nM, respectively.
For `O=C(CCCCCCc1nc(-c2ccc(-c3ccccc3)cc2)cs1)NO`, in that order: 1950 nM, 1320 nM and 11 nM.
With `O=C(CCCCCCc1cnc(-c2ccccc2)o1)NO`, the inhibition at 50 µM was 23% in the assay with HT-1080 [1] and 6.12% in assay [4]. Besides, in assay [2], the IC50 is 13 nM.
For `CNC(=O)C(=O)CCCCCCc1cnc(-c2ccc(Br)cc2)o1`, the IC50 in assay [2] was 30 nM.
Same read-out and setting: for `CNC(=O)C(=O)CCCCCCc1cnc(-c2ccccc2)s1` the value was 47 nM.
Regarding `O=C(CCCCCCc1ncc(-c2ccccc2)o1)NO`, the IC50 in the assay “cells” was determined as 2200 nM; in the assay with HT-1080 [3], 8410 nM; in assay [2], 9.8 nM.
As for `O=C(CCCCCCc1cnc(-c2ccc(F)cc2)o1)NO`, the IC50 was determined as 7940 nM in “cells” and 23 nM in assay [2]. This molecule came in with an inhibition at 50 µM in the assay on HT-1080 [1] of 76%.
In assay [2], `CNC(=O)C(=O)CCCCCCc1cnc(-c2ccccc2)o1` registered an IC50 of 21 nM.
As for `O=C(CCCCCCc1ncc(-c2ccc(Br)cc2)o1)NO`, the IC50 was 6700 nM in “cells”, 7700 nM in the assay with HT-1080 [3] and 2.7 nM in assay [2].
For `O=C(CCCCCCc1cnc(-c2ccc(-c3ccccc3)cc2)o1)NO` the same measures were 98700 nM, 15300 nM and 12 nM.
In assay [2], `CNC(=O)C(=O)CCCCCCc1ncc(-c2ccc(OC)cc2)o1` gave an IC50 of 11 nM.
With `O=C(CCCCCCc1nc(-c2ccc(Br)cc2)cs1)NO`, the values for the IC50 (in “cells”; with HT-1080 [3]; in assay [2]) were 8110 nM, 5680 nM and 8.5 nM, respectively.
For `O=C(CCCCCCc1nc(-c2ccc3ccccc3c2)cs1)NO` the same measures were 850 nM, 2390 nM and 4.3 nM.
For `COc1cccc(OC)c1-c1csc(CCCCCCC(=O)NO)n1`, in that order: 2910 nM, 2000 nM and 4.3 nM.
For the molecule `O=C(CCCCCCNC(=O)c1ccccc1)NO`, in assay [2], the IC50 is 1010 nM.
